These results are taken from patent US20020115704A1, “Treatment method” (priority 2000, published 2002).

Experiment [1] has as its system 5-HT1A receptors or 5-HT1D receptors. The following applies: cited from earlier work.
For experiment [2], the system named is males. The note with it: apomorphine: human males; cited from earlier work.
Experiment [3] has as its system ovariectomised, oestrogen+progesterone-primed female rats. The following applies: cited from earlier work.
For another experiment, the system named is female Macaca arctoides. The experiment can be described thus: Sexual behaviour of the male with the drug-treated female Macaca arctoides. The note with it: for Sexual desire and arousal in female primates: conclusion from the male's behaviour with the treated female; for Copulations with ejaculation (FIG. 1A) / Copulations without ejaculation (FIG. 1B) / Total number of copulations, with and without ejaculation pooled (FIG. 1C) / Number of short time mounts (FIG. 1D): i.m. to the female, n=4, vs saline; for Copulations with ejaculation (FIG. 1A) / Copulations without ejaculation (FIG. 1B): atipamezole 0.03 and 0.3 mg/kg, apomorphine 0.125 and 0.25 mg/kg, or combinations, 20 min observation; for Total number of copulations, with and without ejaculation pooled (FIG. 1C) / Number of short time mounts (FIG. 1D): same doses; for Total number of copulations, with and without ejaculation pooled (FIG. 1C): atipamezole F2,11=5.00, p=0.05; for Number of short time mounts (FIG. 1D): atipamezole F2,11=7.55, p<0.03. In kind it is in vivo. The protocol: This example investigated whether the administration a specific alpha2-adrenoceptor antagonist, atipamezole, a dopamine agonist, apomorphine, or their combination into a female Macaca arctoides produces changes in the sexual behaviour of the female with a male.
The experiments were performed using four female and two male Macaca arctoides monkeys born in captivity. The ages of the adult females were 13 and 16 years and those of the aged females 23 and 25 years. The ages of the males were 14 and 23 years. The females were sexually mature and with normal hormonal cycles.
During the testing period, the monkeys were housed individually in stainless-steel cages. They were fed commercially available food twice each day, and water was always available. Females were weighed before the first injection of each series and doses were adjusted accordingly when appropriate. Sexual behaviour was tested between 11.00 and 16.00 h. The same test cage and testing procedure were used in all experiments. One experienced observer, blind to the treatment, viewed the animals at a distance of about 0.5 m from the cage.
During the testing period, the couple being tested was housed in a single case (0.6×0.9×1.2 m) with two compartments. During the first 10 min of each session, a sliding wall made of steel bars separated the male and the female in the test cage. The monkeys could see and touch each other through this wall. Between the testing sessions, the female being tested was housed in another room with no visual contact with the male.
After i.m. administration of the studied compounds to the female, the observation of the sexual behaviour began as described subsequently. Ten minutes after the end of drug administration, the sliding wall between the male and the female was pulled away and the observation of sexual activity continued for the next 20 min. At the end of the observation period, the sliding wall was replaced and the female was taken to her home cage in another room.
The occurrence and duration of the following parameters were observed: perineal investigation, mounting, masturbation, ejaculation, male and female grooming, eye contact, tying, yawning, self-scratching, direct male aggression towards the female and teeth grinding. A single mount leading to ejaculation was counted as ejaculation. A single mount not leading to ejaculation was counted as a short term mount. If the interval between mounts was >30 s, the mount was considered to be separate. In Macaca arctoides, male ejaculation reached in copulation or masturbation can be recognised clearly on the basis of its stereotypic manifestations as described in Linnankoski et al. (Arch. Sexual Behav. 10:207-222, 1981).
The experiments were performed once every other day for three days/week. In each female, the effect of atipamezole (Orion Pharma, Turku, Finland) alone (0.03 and 0.3 mg/kg and saline control) was tested during the first two weeks. The effect of apomorphine (Sigma, St.Louis, Mo.) alone (0.125 and 0.25 mg/kg and saline control) was tested during the next two weeks. The combination of a low dose of atipamezole (0.03 mg/kg) with a low dose apomorphine (0.125 mg/kg), a high dose of atipamezole (0.3 mg/kg) with a high dose of apomorphine (0.25 mg/kg), or saline control (two saline injections) was studied during the last two weeks. Owing to the difference in their pharmacokinetic properties, atipamezole (or its saline control) was always administered 10 min before testing session and apomorphine (or its saline control) 20 min before the testing session. The order of testing various doses of drugs and saline control was randomised within each two week testing period. Each dose or the combination was tested twice and the average result of these two sessions was used in final calculations. The experiments were performed in a double-blind fashion.

The subject of another experiment is α2-adrenoceptor. The following applies: cited from earlier work.
Experiment [4] relates to dopaminergic, GABAergic, serotonergic (such as 5-HT1A) receptors. The note with it: cited from earlier work.
Experiment [5] has as its system males. The following applies: cited from earlier work.
A further experiment concerns menopausal women. The note with it: oral; cited from earlier work.
In a further experiment the test system is postmenopausal women. The following applies: cited from earlier work.

On to `COc1ccccc1N1CCN(CCN2C(=O)c3ccccc3C(C)(C)C2=O)CC1` [ARC 239], for which the “Affinity on 5-HT1A receptors or 5-HT1D receptors” value in [1] is reported as “have affinity”.
As for `CC1c2ccccc2CN1CC1=NCCN1` (centres unmarked) [BRL 44408], in [1], the “Affinity on 5-HT1A receptors or 5-HT1D receptors” value was “have affinity”.
In the case of `c1ccc2c(c1)OCC(C1=NCCN1)O2` (centres unmarked) [Idazoxan], in experiment [1], the “Affinity on 5-HT1A receptors or 5-HT1D receptors” value is listed as “have affinity”.
For `COC1(C2=NCCN2)COc2ccccc2O1` (centres unmarked) [RX821002, 2-methoxy idazoxan], the “Affinity on 5-HT1A receptors or 5-HT1D receptors” value in experiment [1] is “have affinity”.
Consider `CN1CCc2cccc3c2[C@H]1Cc1ccc(O)c(O)c1-3` [apomorphine], for which the “Sexual arousal i.e. erections” value in the experiment on males [2] is on record as “increased”. For the same compound, in experiment [3], the “Sexual behaviour, lordosis response” value is on record as “facilitate”. In the experiment with female Macaca arctoides, the “Sexual desire and arousal in female primates” value is recorded as “ineffective”; the “Copulations with ejaculation (FIG. 1A)” value is reported as “failed to be statistically significant”; the “Copulations without ejaculation (FIG. 1B)” value is “failed to be statistically significant”; the “Total number of copulations, with and without ejaculation pooled (FIG. 1C)” value was “not significant”. The “Number of short time mounts (FIG. 1D)” value in the experiment on female Macaca arctoides is recorded as “no significant effect”.
Regarding `CCC1(c2c[nH]cn2)Cc2ccccc2C1` [atipamezole, 4-(2-ethyl-2,3-dihydro-1H-inden-2-yl)-1H-imidazole], the α2-/α1-adrenoceptor selectivity ratio result with α2-adrenoceptor is “high”. In experiment [4], the “Affinity for other neurotransmitter receptors (dopaminergic, GABAergic, serotonergic, benzodiazepine)” value is “negligible affinity”. In the experiment on female Macaca arctoides, the “Sexual desire and arousal in female primates” value was “increases”; the “Copulations with ejaculation (FIG. 1A)” value is reported as “failed to be statistically significant”; the “Copulations without ejaculation (FIG. 1B)” value is listed as “failed to be statistically significant”; the “Total number of copulations, with and without ejaculation pooled (FIG. 1C)” value was “significant increase”. Also, the “Number of short time mounts (FIG. 1D)” value in the experiment on female Macaca arctoides was “dose-dependent increase”. The “Sexual activity (ejaculations produced by copulation and/or masturbation)” value in the experiment with males [5] is “increase”.
Regarding `COc1ccc2c(c1)CCN1C[C@H]3CCCN(S(C)(=O)=O)[C@H]3C[C@@H]21` [deleguamine, delequamine], the “Affinity on 5-HT1A receptors or 5-HT1D receptors” value in experiment [1] is recorded as “have affinity”. For the same compound, the “Sexual behaviour, lordosis response” value in [3] is “facilitate”.
For `Cc1ccc(N(CC2=NCCN2)c2cccc(O)c2)cc1` [phentolamine], the “Sexual arousal i.e. erections” value in the experiment on males [2] was “increase”. Besides, the “Sexual arousal, such as self-reported lubrication” value in the experiment on menopausal women is given as “mild improvement”.
Regarding `CCCc1nn(C)c2c(=O)[nH]c(-c3cc(S(=O)(=O)N4CCN(C)CC4)ccc3OCC)nc12` [sildenafil], the “Sexual arousal i.e. erections” value in the experiment with males [2] was “increase”. The Sexual function result in the experiment with postmenopausal women is “did not improve the sexual function significantly”.
For the compound `COC(=O)[C@@H]1[C@H]2C[C@H]3c4[nH]c5ccccc5c4CCN3C[C@@H]2CC[C@@H]1O` [yohimbine], the “Affinity for other neurotransmitter receptors (dopaminergic, GABAergic, serotonergic, benzodiazepine)” value in experiment [4] was “has affinity”.
